Work on NC(=O)C(=Cc1c[nH]c2ncccc12)c1ccccc1 [compound 299, 2-phenyl-3-(1H-pyrrolo[2,3-b]pyridin-3-yl)-2-propenamide] yielded a melting point of 222 to 224 °C. For O=C(O)C(=Cc1c[nH]c2ncccc12)c1ccccc1 [compound 300, 2-phenyl-3-(1H-pyrrolo[2,3-b]pyridin-3-yl)-2-propenoic acid], the melting point was > 230 °C. For CCCCNC(=O)C(=Cc1c[nH]c2ncccc12)c1ccccc1 [compound 301, N-butyl-2-phenyl-3-(1H-pyrrolo[2,3-b]pyridin-3-yl)-2-propenamide], the melting point was 177 to 179 °C (dec.).
